{"source": "patent US10167258B2", "about": "“Inhibitors of mitochondrial pyruvate dehydrogenase kinase isoforms 1-4 and uses thereof” (The Board of Regents of the University of Texas System, priority 2013, dated 2019)", "key": {"[1]": {"molecular_target": "T1, human PDK1 (Homo sapiens, UniProt Q15118)", "T1 construct": "made in house", "T1 sequence (Q15118 29-436)": "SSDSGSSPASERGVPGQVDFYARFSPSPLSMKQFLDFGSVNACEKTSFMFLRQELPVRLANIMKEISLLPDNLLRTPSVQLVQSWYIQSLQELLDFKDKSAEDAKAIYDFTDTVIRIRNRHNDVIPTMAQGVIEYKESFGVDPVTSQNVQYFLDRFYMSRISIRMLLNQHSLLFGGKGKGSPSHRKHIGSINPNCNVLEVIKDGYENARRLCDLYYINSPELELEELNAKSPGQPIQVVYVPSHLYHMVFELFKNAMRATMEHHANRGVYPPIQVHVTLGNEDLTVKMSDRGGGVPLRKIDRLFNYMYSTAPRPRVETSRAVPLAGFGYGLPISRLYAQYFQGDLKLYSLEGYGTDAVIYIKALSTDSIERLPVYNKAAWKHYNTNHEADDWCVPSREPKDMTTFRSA", "assay": "Assay for inhibition of PDK activity, PDK1", "type": "biochemical", "settings": "absence of E2/E3BP core (−)", "method": "Recombinant human PDK2 was expressed and purified as a N terminal His6-tagged SUMO fusion protein with a tobacco-etch-virus protease (TEV) cleavage site in front of the N-terminal PDK2 sequence (26), and was used directly for the activity assay and binding affinity analyses. For crystallization, the protein was subjected to a TEV-protease digestion, and the untagged PDK2 protein was purified on a Superdex 200 column in 20 mM Tris-HCl (pH 8.0), 150 mM NaCl and 5 mM DTT. The purified protein was concentrated to 35-40 mg/ml and stored at −80° C. in small aliquots. Recombinant human PDK1, PDK3 and PDK4 were expressed and purified as described previously (26).\n. The remaining steps were described previously (26). IC50 values were obtained by the curve fitting of inhibition isotherms using Prism 6 (GraphPad software, Inc.)."}, "[2]": {"assay": "Pharmacokinetic studies in mice after IP dosing", "type": "in vivo", "settings": "70 mg/kg IP, male C57BL/6J mice, plasma", "method": "Twenty-one male C57BL/6J mice were dosed IP with 70 mg/kg PS-10, 0.2 ml/mouse formulated as 10% DMSO/20% water/70% of 25% (2-hydroxypropyl)-β-cyclodextrin for determination of PS-10 PK. Twenty-one female CD-1 mice were dosed IP with 20 mg/kg PS-8, 0.2 ml/mouse formulated as 5% ethanol and 95% of 0.1 M sodium bicarbonate pH 9.0 for determination of PS-8 PK. Animal (n=3) were sacrificed and whole blood was harvested for each time point. Plasma was processed from whole blood by centrifugation of the ACD treated blood for 10′ at 10,000 rpm in a standard centrifuge. The analytical processing of blood samples and pharmacokinetics studies using LC/MS/MS were as described previously with LC/MS/MS methods optimized for detection of PS-10 and PS-8 (33)."}, "[3]": {"tested_on": "phosphorylated E1α subunit", "assay": "Western blotting of phosphorylated E1α subunit in tissues of DIO mice", "type": "in vivo", "settings": "single dose 70 mg/kg IP, 10 h", "method": "Six- to eight-week old C57BL/6J male mice were obtained from the local campus breeding colony at UT Southwestern Medical Center (Dallas, Tex.) and randomized into two groups: vehicle- and PS10-treated. Prior to the treatment, mice were fed with a 60% high-fat diet, which contained 32% saturated and 68% unsaturated fat (catalog number: D12492, Research Diet Inc. New Brunswick, N.J.), for eight to ten weeks to produce DIO animals. PS-10 was dissolved in 100% DMSO and then diluted to make a 10% DMSO aqueous solution containing 17.5% (w/v) (2-hydroxypropyl)-β-cyclodextrin for delivery. Animals were dosed at mid-day by intraperitoneal (IP) injections at 70 mg/kg using 1-ml syringe and 30-gauge needle. The length of the treatment is indicted in each experiment. At 10 h after the last injection, animals were euthanized using carbon dioxide asphyxiation followed by cervical dislocation and dissection. Blood was harvested by cardiac puncture and stored on ice. Acidified citrate dextrose (ACD) was used as an anticoagulant. Immediately after blood collection, heart, liver, kidneys and both hind-leg quadriceps muscles were removed and snap frozen in liquid nitrogen. Average ischemia time before organ harvest was about 2 to 3 min. Blood was centrifuged in an Eppendorf 5415R refrigerated microcentrifuge at 9,300×g for 5 min to isolate plasma, which was subsequently stored at −80° C. […]"}, "[4]": {"molecular_target": "T2, PDP1 (Homo sapiens, UniProt Q9P0J1)", "T2 sequence (Q9P0J1 72-537)": "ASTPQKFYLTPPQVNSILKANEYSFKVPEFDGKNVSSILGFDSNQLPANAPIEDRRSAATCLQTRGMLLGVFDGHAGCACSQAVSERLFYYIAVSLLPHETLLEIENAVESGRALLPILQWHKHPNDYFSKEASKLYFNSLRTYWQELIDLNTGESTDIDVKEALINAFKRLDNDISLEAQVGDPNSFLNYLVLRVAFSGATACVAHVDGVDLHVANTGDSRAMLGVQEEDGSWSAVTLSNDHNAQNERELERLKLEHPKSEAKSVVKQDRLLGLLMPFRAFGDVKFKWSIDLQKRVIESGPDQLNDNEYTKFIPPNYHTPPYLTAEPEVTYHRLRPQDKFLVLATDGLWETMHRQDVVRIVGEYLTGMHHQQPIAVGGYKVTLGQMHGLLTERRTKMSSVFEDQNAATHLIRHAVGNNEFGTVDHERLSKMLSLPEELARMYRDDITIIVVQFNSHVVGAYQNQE", "assay": "PDP1 activity in vitro", "type": "biochemical", "settings": "at up to 1 mM"}, "[5]": {"tested_on": "DIO mice", "assay": "Glucose tolerance test in DIO mice", "type": "in vivo", "settings": "70 mg/kg/day IP for 4 weeks, 1.5 g/kg glucose challenge", "method": "(§1) Six- to eight-week old C57BL/6J male mice were obtained from the local campus breeding colony at UT Southwestern Medical Center (Dallas, Tex.) and randomized into two groups: vehicle- and PS10-treated. Prior to the treatment, mice were fed with a 60% high-fat diet, which contained 32% saturated and 68% unsaturated fat (catalog number: D12492, Research Diet Inc. New Brunswick, N.J.), for eight to ten weeks to produce DIO animals. PS-10 was dissolved in 100% DMSO and then diluted to make a 10% DMSO aqueous solution containing 17.5% (w/v) (2-hydroxypropyl)-β-cyclodextrin for delivery. Animals were dosed at mid-day by intraperitoneal (IP) injections at 70 mg/kg using 1-ml syringe and 30-gauge needle. The length of the treatment is indicted in each experiment. At 10 h after the last injection, animals were euthanized using carbon dioxide asphyxiation followed by cervical dislocation and dissection. Blood was harvested by cardiac puncture and stored on ice. Acidified citrate dextrose (ACD) was used as an anticoagulant. Immediately after blood collection, heart, liver, kidneys and both hind-leg quadriceps muscles were removed and snap frozen in liquid nitrogen. Average ischemia time before organ harvest was about 2 to 3 min. Blood was centrifuged in an Eppendorf 5415R refrigerated microcentrifuge at 9,300×g for 5 min to isolate plasma, which was subsequently stored at −80° C.\nMice were fasted for 6 hours after compound treatment. Ten hours after compound administration, 1.5 g/kg of glucose was delivered intraperitoneally to mice. Tail vein serum samples were collected immediately before and 15, 30, 60 and 120 minutes after the glucose challenge. The glucose levels in serum samples were determined by a glucose meter."}, "[6]": {"assay": "Food intake, body weight and fat mass of DIO mice", "type": "in vivo", "settings": "70 mg/kg/day", "method": "as §1"}, "[7]": {"tested_on": "mature SREBP-1c", "assay": "Hepatic nuclear mature SREBP-1c protein level in PDK inhibitor-treated DIO mice", "type": "in vivo", "settings": "40 mg/kg/day by mini-pumps for 5 days"}, "[8]": {"assay": "Solubility in DMSO used in the formulation", "type": "physicochemical", "settings": "compared with PS8"}, "[9]": {"tested_on": "HeLa cells", "settings": "read-out: IC50 for the growth inhibition of HeLa cells"}, "[10]": {"tested_on": "PDC", "assay": "PDC flux in perfused hearts from DIO mice by hyperpolarized 13C NMR", "settings": "single dose 70 mg/kg IP, 8-hr", "protocol": "Metabolism of [1-^13C]pyruvate to [1-^13C]alanine, [1-^13C]lactate, H^13CO3^− and ^13CO2 were detected in real time by ^13C NMR spectra, following the injection of 2 mM HP [1-^13C]pyruvate into perfused heart (FIG. 10A)."}}}
{"smiles": "O=S(=O)(c1ccc(O)cc1O)N1Cc2cc(O)cc(O)c2C1", "note": "[PS10, 2-((2,4-dihydroxyphenyl)sulfonyl)isoindoline-4,6-diol]", "values": [{"measurement": "IC50", "setting": "[1]", "result": 2.07, "unit": "µM"}, {"measurement": "CL/F", "setting": "[2]", "result": 0.741, "unit": "mL/min"}, {"measurement": "AUC(0-t)", "setting": "[2]; mouse", "result": 31800, "unit": "ng·h/mL"}, {"measurement": "Cmax", "setting": "[2]; mouse", "result": 32400, "unit": "ng/mL"}, {"measurement": "Tmax", "setting": "[2]; mouse", "result": 0.167, "unit": "h"}, {"measurement": "half-life", "setting": "[2]; mouse, read-out: Terminal T1/2", "result": 2.68, "unit": "h"}, {"measurement": "Vd/F", "setting": "[2]; mouse, read-out: Vz/F", "result": 0.172, "unit": "L"}, {"measurement": "amounts of the phosphorylated E1α subunit in heart and liver vs vehicle-treated", "setting": "[3]", "result": "significantly decreased"}, {"measurement": "effect on PDP1 activity in vitro", "setting": "[4]", "result": "without effect"}, {"measurement": "plasma glucose level at 0 min", "setting": "[5]", "result": 168, "unit": "mg/dL"}, {"measurement": "plasma glucose level at 30 min", "setting": "[5]", "result": 312, "unit": "mg/dL"}, {"measurement": "plasma glucose level at 120 min", "setting": "[5]", "result": 163, "unit": "mg/dL"}, {"measurement": "body weight vs vehicle-treated", "setting": "[6]", "result": "no significant differences"}, {"measurement": "fat-mass vs vehicle-treated", "setting": "[6]", "result": "reduction"}, {"measurement": "food intake vs vehicle-treated", "setting": "[6]", "result": "no significant differences"}, {"measurement": "protein level of nuclear mature SREBP-1c", "setting": "[7]", "result": "unchanged"}, {"measurement": "solubility in DMSO", "setting": "[8]", "result": "better solubility in DMSO"}, {"measurement": "IC50", "setting": "[9]", "result": 284, "unit": "µM"}, {"measurement": "cardiac PDC flux in DIO mice", "setting": "[10]", "result": "smaller increase"}]}
